Measurements reported in paper PMC6950218 (Journal of Medicinal Chemistry, 2011).
Read-outs that look alike come from different tables or passages of the source.

Assays:
[1] = not given; remark: listed apart in the source
[2] = not given; remark: listed apart in the source
P. falciparum strain W2 = assay: Antimalarial proliferation inhibition assay; format: cell-based, Plasmodium falciparum; settings: mean of at least two experiments
[3] = not given; remark: listed apart in the source
Caco-2 = settings: for Caco-2 A–B: apical to basolateral; for Caco-2 B–A: basolateral to apical
P. falciparum strain 3D7 = assay: Antimalarial proliferation inhibition assay; format: cell-based, Plasmodium falciparum; settings: for IC50: mean of at least two experiments
Huh7 = assay: Cytotoxicity Huh7; format: cell-based
CHO = assay: Cytotoxicity CHO; format: cell-based
HeLa = assay: Cytotoxicity HeLa; format: cell-based
[4] = Maximum tolerable dose test in rats; settings: rats in vivo
HEp2 = assay: Cytotoxicity HEp2; format: cell-based
Ba/F3 = assay: Cytotoxicity Ba/F3; format: cell-based
[5] = resynthesized powders (data in brackets)
[6] = Plasmodium falciparum, W2, read-out: P. falciparum strain IC50 W2, resynthesized powders (data in brackets)
[7] = Plasmodium falciparum, 3D7, read-out: P. falciparum strain IC50 3D7, resynthesized powders (data in brackets)

## 3-Amino-1-(2-(4-fluorophenyl)-3-(4-fluorophenylamino)-5,6-dihydroimidazo[1,2-a]pyrazin-7(8H)-yl)propan-1-one [Compound 29]
other
  hepatic microsome metabolic stability (extraction ratio) rat: 0.38
[1]
  hepatic microsome metabolic stability (extraction ratio) human: 0.21
[2]
  hepatic microsome metabolic stability (extraction ratio) mouse: 0.21
P. falciparum strain W2; read-out: P. falciparum strain IC50 W2
  IC50: 23 nM
[3]
  PAMPA (% absorbed): low
Caco-2
  Caco-2 A–B: 0.99 cm/s × 10^6
  Caco-2 B–A: 2.99 cm/s × 10^6
P. falciparum strain 3D7; read-out: P. falciparum strain IC50 3D7
  IC50: 30 nM

## NCC(=O)N1CCn2c(nc(-c3ccccc3)c2Nc2ccc3c(c2)OCO3)C1 [Compound 1a, 2-Amino-1-(3-(benzo[d][1,3]dioxol-5-ylamino)-2-phenyl-5,6-dihydroimidazo[1,2-a]pyrazin-7(8H)-yl)ethanone]
Huh7; HTS DMSO stock solutions
  cyotoxicity Huh7: > 10 µM
Huh7; [5]
  cyotoxicity Huh7: > 100 µM
P. falciparum strain W2; [6]
  IC50: 473 nM
P. falciparum strain 3D7; [7]
  IC50: 460 nM

## NC(Cc1ccccc1)C(=O)N1CCn2c(nc(-c3ccccc3)c2Nc2ccc3c(c2)OCO3)C1 (stereo not drawn) [Compound 1b, 2-Amino-1-(3-(benzo[d][1,3]dioxol-5-ylamino)-2-phenyl-5,6-dihydroimidazo[1,2-a]pyrazin-7(8H)-yl)-3-phenylpropan-1-one]
Huh7; HTS DMSO stock solutions
  cyotoxicity Huh7: > 10 µM
Huh7; [5]
  cyotoxicity Huh7: > 79 µM
P. falciparum strain W2; [6]
  IC50: 122 nM
P. falciparum strain 3D7; [7]
  IC50: 119 nM

## CC(C)CC(N)C(=O)N1CCn2c(nc(-c3ccccc3)c2Nc2ccc3c(c2)OCO3)C1 (stereo not drawn) [Compound 1c, 2-Amino-1-(3-(benzo[d][1,3]dioxol-5-ylamino)-2-phenyl-5,6-dihydroimidazo[1,2-a]pyrazin-7(8H)-yl)-4-methylpentan-1-one]
Huh7; HTS DMSO stock solutions
  cyotoxicity Huh7: > 10 µM
Huh7; [5]
  cyotoxicity Huh7: 42 µM
P. falciparum strain W2; [6]
  IC50: 29 nM
P. falciparum strain 3D7; [7]
  IC50: 30 nM

## NCC(=O)N1CCn2c(nc(-c3ccc(F)cc3)c2Nc2ccc(F)cc2)C1 [Compound 5, 2-Amino-1-(2-(4-fluorophenyl)-3-(4-fluorophenylamino)-5,6-dihydroimidazo[1,2-a]pyrazin-7(8H)-yl)ethanone]
[3]
  PAMPA (% absorbed): 52 % absorbed
Caco-2
  Caco-2 A–B: 0.70 cm/s × 10^6
  Caco-2 B–A: 2.55 cm/s × 10^6
P. falciparum strain 3D7
  fold more potent than the original hit compound 1a: 4 fold

## CC(C)(N)C(=O)N1CCn2c(nc(-c3ccc(F)cc3)c2Nc2ccc(F)cc2)C1 [Compound 11, 2-Amino-1-(2-(4-fluorophenyl)-3-(4-fluorophenylamino)-5,6-dihydroimidazo[1,2-a]pyrazin-7(8H)-yl)-2-methylpropan-1-one]
CHO
  cytotoxicity TC50 CHO: greater than 12 μM
Huh7
  cytotoxicity TC50 Huh7: greater than 12 μM
HeLa
  cytotoxicity TC50 HeLa: greater than 12 μM
[4]
  maximum tolerable dose test: no gross effects at doses up to 500 mg/kg
[3]
  PAMPA (% absorbed): 81 % absorbed
Caco-2
  Caco-2 A–B: 3.05 cm/s × 10^6
  Caco-2 B–A: 8.38 cm/s × 10^6
HEp2
  cytotoxicity TC50 HEp2: greater than 12 μM

## NCC(=O)N1CCn2c(nc(-c3cccc(F)c3)c2Nc2ccc(F)cc2)C1 [Compound 18, 2-Amino-1-(3-((4-fluorophenyl)amino)-2-(3-fluorophenyl)-5,6-dihydroimidazo[1,2-a]pyrazin-7(8H)-yl)ethanone]
[3]
  PAMPA (% absorbed): low
Caco-2
  Caco-2 A–B: 0.56 cm/s × 10^6
  Caco-2 B–A: 2.32 cm/s × 10^6

## NCC(=O)N1CCn2c(nc(-c3ccc(F)cc3)c2Nc2ccc(Cl)cc2)C1 [Compound 27, 2-Amino-1-(3-(4-chlorophenylamino)-2-(4-fluorophenyl)-5,6-dihydroimidazo[1,2-a]pyrazin-7(8H)-yl)ethanone]
[3]
  PAMPA (% absorbed): 52 % absorbed
Caco-2
  Caco-2 A–B: 0.44 cm/s × 10^6
  Caco-2 B–A: 1.25 cm/s × 10^6

## CC(C)(N)C(=O)N1CCn2c(nc(-c3ccc(F)cc3)c2Nc2ccc(Cl)cc2)C1 [Compound 28, 2-Amino-1-(3-(4-chlorophenylamino)-2-(4-fluorophenyl)-5,6-dihydroimidazo[1,2-a]pyrazin-7(8H)-yl)-2-methylpropan-1-one]
[3]
  PAMPA (% absorbed): 89 % absorbed
Caco-2
  Caco-2 A–B: 1.46 cm/s × 10^6
  Caco-2 B–A: 1.86 cm/s × 10^6

## CC(C)(N)C(=O)N1CCn2c(nc(-c3ccc(F)cc3)c2Nc2ccc(F)c(F)c2)C1 [Compound 30, 2-Amino-1-(3-(3,4-difluorophenylamino)-2-(4-fluorophenyl)-5,6-dihydroimidazo[1,2-a]pyrazin-7(8H)-yl)-2-methylpropan-1-one]
CHO
  cytotoxicity TC50 CHO: greater than 12 μM
Huh7
  cytotoxicity TC50 Huh7: greater than 12 μM
Ba/F3
  cytotoxicity TC50 Ba/F3: greater than 12 μM
Micronucleus test
  micronucleus test: negative
HeLa
  cytotoxicity TC50 HeLa: greater than 12 μM
mini-Ames test
  mini-Ames test: negative
[3]
  PAMPA (% absorbed): 86 % absorbed
Caco-2
  Caco-2 A–B: 0.14 cm/s × 10^6
  Caco-2 B–A: 1.03 cm/s × 10^6
HEp2
  cytotoxicity TC50 HEp2: greater than 12 μM

## CC(C)(N)C(=O)N1CCn2c(nc(-c3ccc(F)cc3)c2Nc2ccc(Cl)c(F)c2)C1 [Compound 32, 2-Amino-1-(3-(4-chloro-3-fluorophenylamino)-2-(4-fluorophenyl)-5,6-dihydroimidazo[1,2-a]pyrazin-7(8H)-yl)-2-methylpropan-1-one]
[3]
  PAMPA (% absorbed): 94 % absorbed
Caco-2
  Caco-2 A–B: 0.84 cm/s × 10^6
  Caco-2 B–A: 0.87 cm/s × 10^6
